According to US20240174744A1, “METHODS OF TREATMENT USING PROTEIN BINDERS TO IRHOM2 EPITOPES” (SCIRHOM GMBH, priority 2021, published 2024):

System: PMA-induced release of HB-EGF from PBMCs from patients suffering from rheumatoid arthritis
Assay: ELISA-based HB-EGF release assay, PBMCs from RA-patients
Assay type: cell-based
Details: Homo sapiens; chimeric antibodies (CHO) 1 μg/ml; Batimastat 10 μM; PMA 25 ng/ml, 6 hours
Procedure: In contrast to Example 35, where the inhibitory effects of the antibodies of the present disclosure on PMA-induced release of endogenous HB-EGF from primary human material obtained from healthy donors using peripheral blood mononuclear cells (PBMCs) were tested, this analysis was conducted to analyze the inhibitory effects of the antibodies of the present disclosure on PMA-induced release of endogenous HB-EGF from primary human material obtained from patients suffering from rheumatoid arthritis (RA-patients).
In brief, on day 1, Nunc black MaxiSorp® 96-well plates (Thermo Fisher Scientific, USA) were coated overnight with 100 μl per well of rat anti-human HB-EGF capture antibody (provided as part of the DuoSet ELISA kit) at 2 μg/ml TBS at 4° C. On day 2, the capture antibody solution was removed and MaxiSorp® plates were blocked with 300 μl per well of TBS, 1% BSA at room temperature for 3 hours. […]
To avoid drying-up, 30 μl TBS were added to each well of the MaxiSorp® plates immediately, followed by the transfer of 70 μl cell-free supernatant per sample. […] Using an infinite M1000 (Tecan Group, Switzerland) microplate reader, the fluorescence of each well was collected at an excitation wavelength of 435 nm and an emission wavelength of 555 nm.

`CNC(=O)[C@H](Cc1ccccc1)NC(=O)[C@H](CC(C)C)[C@H](CSc1cccs1)C(=O)NO` [Batimastat] showed an inhibition at 10 µM of 102%.
